# Assay results published in patent publication US20130337564A1, “Treatment of Pluripotent Cells” (Janssen Biotech, Inc., priority 2012, published 2013).
# Legend:
# Type in all cases: cell-based
# [1] = system: Sox17 expression in human embryonic stem cells (H9 line); assay: High content screening assay: Sox17 protein expression (differentiation); conditions: for fold induction at 10 µM: Homo sapiens, Embryonic stem cell, 10 μM test compound with 100 ng/ml activin A on days 1-2, H9, total intensity by IN Cell Analyzer, strong and moderate hits, read-out: SOX17 Expression, Fold over Wnt 3a/AA control
# Method in brief: (§1)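 H9 hESCs on MATRIGEL treated days 1-2 with 10 μM compound in DMEM:F12, 0.5% FCS, 100 ng/ml activin A; days 3-4 with 2% FCS plus activin A without compound. Fixed cells immunostained for Sox17 or HNF-3beta with Draq5 nuclear counterstain. Cell number and staining intensity quantified by high-content imaging, 12 fields/well.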
# [2] = system: HNF-3beta expression in human embryonic stem cells (H9 line); assay: High content screening assay: HNF-3beta protein expression (differentiation)
# Method in brief: as §1
# [3] = system: human embryonic stem cells (H9 or H1 lines); assay: Plate reader (MTS) proliferation assay; conditions: for activity at 10 µM: Homo sapiens, Embryonic stem cell, 96 h, 10 μM test compound with 100 ng/ml activin A on days 1-2, MTS OD490 on day 4, vs Activin A/Wnt3a positive control, strong and moderate hits; for Average: average of replicate raw data
# Method in brief: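 H9 or H1 cells on Matrigel, washed, then given DMEM:F12 with 0.5% FCS, 100 ng/ml activin A and 10 μM compound (days 1–2), then 2% FCS plus activin A (days 3–4). MTS added day 4, OD490 read after 1.5–4 h at 37 °C; triplicates as percent of activin A/Wnt3a control.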
SMILES,fold induction at 10 µM [1],SOX-17 Expression Total Intensity [1],HNF-3b Expression Total Intensity [2],activity at 10 µM [3],Average [3],"fold induction at 10 µM ([2]; Homo sapiens, Embryonic stem cell, 10 μM test compound with 100 ng/ml activin A on days 1-2, H9, total intensity by IN Cell Analyzer, strong and moderate hits, read-out: HNF3β Expression, Fold over Wnt 3a/AA control)"
"Cn1cc(C2=C(c3nn(CCCn4ccnc4)c4ccccc34)C(=O)NC2=O)c2cc(Cl)ccc21 [Compound 231, 3-(5-Chloro-1-methyl-1H-indol-3-yl)-4-{1-[3-(1H-imidazol-1-yl)propyl]-1H-indazol-3-yl}-1H-pyrrole-2,5-dione]",0.811,789085000,547055000,114%,1.6020,
"Cn1cc(C2=C(c3nn(CCCn4ccnn4)c4ccccc34)C(=O)NC2=O)c2cc(Cl)ccc21 [Compound 232, 3-(5-Chloro-1-methyl-1H-indol-3-yl)-4-{1-[3-(1H-1,2,3-triazol-1-yl)propyl]-1H-indazol-3-yl}-1H-pyrrole-2,5-dione]",1.07,1045395000,854325000,132%,1.8323,0.771
"O=C1NC(=O)C2=C1Nc1cccc(c1)OCCC/C=C\CCCOc1cccc2c1 [Compound 233, (11Z)-8,9,10,13,14,15-Hexahydro-2,6:17,21-di(metheno)pyrrolo[3,4-h][1,15,7]dioxazacyclotricosine-22,24(1H,23H)-dione]",,327055000,109160000,93%,1.3325,
